Here are results for eight compounds from ChEMBL document CHEMBL1138373, “New antifungal flavonoid glycoside from Vitex negundo” (2007).

Converted amounts (≈) assume the structure as drawn. Where only a bound is given, the exact number is not on record here.

For one assay, the system named is Trichophyton benhamiae. As to the kind of experiment: Antifungal activity against Trichophyton mentagrophytes by broth micro-dilution technique. It is filed as functional, Arthroderma benhamiae. For orientation: Dilution methods test growth across graded concentrations, often in twofold steps.
Another assay concerns Aspergillus fumigatus. In words: Antifungal activity against Aspergillus fumigatus by broth micro-dilution technique. It is filed as functional.
A further assay deals with Candida parapsilosis. In words: Antifungal activity against Candida parapsilosis ATCC 22019 by broth micro-dilution technique. Particulars: Lodderomyces parapsilosis. It is filed as functional.
For a further assay, the system named is Enterococcus faecalis. As to the kind of experiment: Antibacterial activity against Streptococcus faecalis by broth micro-dilution technique. It is filed as functional.
In the next assay the test system is Klebsiella pneumoniae. As to the kind of experiment: Antibacterial activity against Klebsiella pneumoniae by broth micro-dilution technique. It is filed as functional.
The subject of the next assay is Escherichia coli. In words: Antibacterial activity against Escherichia coli by broth micro-dilution technique. It is filed as functional.
A further assay has as its system Pseudomonas aeruginosa. In words: Antibacterial activity against Pseudomonas aeruginosa by broth micro-dilution technique. It is filed as functional.
For a further assay, the system named is Staphylococcus aureus. As to the kind of experiment: Antibacterial activity against Staphylococcus aureus by broth micro-dilution technique. It is filed as functional.
Another assay relates to Candida albicans. In words: Antifungal activity against Candida albicans by broth micro-dilution technique. It is filed as functional.
For a further assay, the system named is Cryptococcus neoformans. As to the kind of experiment: Antifungal activity against Cryptococcus neoformans by broth micro-dilution technique. It is filed as functional.
The next assay deals with Sporothrix schenckii. In words: Antifungal activity against Sporothrix schenckii by broth micro-dilution technique. It is filed as functional.

Consider `COC(=O)[C@H]1O[C@@H](Oc2cc(-c3cc(=O)c4c(O)cc(O)cc4o3)ccc2O)[C@H](O)[C@@H](O)[C@@H]1O`, for which the MIC – broadly, the smallest concentration in the dilution series that meets the test's criterion for growth inhibition – is 6.25 µg/mL (≈ 13.1 µM) with Trichophyton benhamiae; greater than 50 µg/mL with Aspergillus fumigatus; greater than 50 µg/mL against Candida parapsilosis; greater than 50 µg/mL with Enterococcus faecalis; greater than 50 µg/mL with Klebsiella pneumoniae; greater than 50 µg/mL against Escherichia coli. The MIC against Pseudomonas aeruginosa is greater than 50 µg/mL; in the assay on Staphylococcus aureus it was greater than 50 µg/mL; against Candida albicans, greater than 50 µg/mL; against Cryptococcus neoformans, 6.25 µg/mL (≈ 13.1 µM); with Sporothrix schenckii, greater than 50 µg/mL.

For `C[C@]1(O)CC[C@@H]2C(C(=O)O)=CO[C@@H](O[C@H]3O[C@@H](CO)[C@H](O)[C@@H](O)[C@@H]3OC(=O)c3ccc(O)cc3)[C@@H]21`, the MIC against Trichophyton benhamiae was 6.25 µg/mL (≈ 12.6 µM); with Aspergillus fumigatus it was 50 µg/mL (≈ 101 µM); in the assay on Candida parapsilosis, greater than 50 µg/mL; with Enterococcus faecalis it was greater than 50 µg/mL; against Klebsiella pneumoniae, 25 µg/mL (≈ 50.4 µM); with Escherichia coli it was 25 µg/mL (≈ 50.4 µM). The MIC in the assay with Pseudomonas aeruginosa is 25 µg/mL (≈ 50.4 µM); in the assay with Staphylococcus aureus it was 50 µg/mL (≈ 101 µM); with Candida albicans, greater than 50 µg/mL; in the assay with Cryptococcus neoformans, 6.25 µg/mL (≈ 12.6 µM); against Sporothrix schenckii, greater than 50 µg/mL.

In the case of `O=C(OCC1=C[C@@H](O)[C@@H]2C=CO[C@@H](O[C@H]3O[C@@H](CO)[C@H](O)[C@@H](O)[C@@H]3O)[C@H]12)c1ccc(O)cc1`, the MIC is 12.5 µg/mL (≈ 26.8 µM) against Trichophyton benhamiae; greater than 50 µg/mL in the assay with Aspergillus fumigatus; greater than 50 µg/mL in the assay on Candida parapsilosis; greater than 50 µg/mL in the assay with Enterococcus faecalis; 50 µg/mL (≈ 107 µM) against Klebsiella pneumoniae; greater than 50 µg/mL against Escherichia coli. Further, the MIC was greater than 50 µg/mL against Pseudomonas aeruginosa; greater than 50 µg/mL against Staphylococcus aureus; greater than 50 µg/mL with Candida albicans; 12.5 µg/mL (≈ 26.8 µM) against Cryptococcus neoformans; greater than 50 µg/mL in the assay on Sporothrix schenckii.

With `CC1(C)S[C@@H]2[C@H](NC(=O)[C@H](N)c3ccccc3)C(=O)N2[C@H]1C(=O)O` [AMPICILLIN], the MIC in the assay with Enterococcus faecalis came out at 0.02 µg/mL (≈ 0.0572 µM); with Klebsiella pneumoniae, 0.09 µg/mL (≈ 0.258 µM); against Pseudomonas aeruginosa, 50 µg/mL (≈ 143 µM); against Staphylococcus aureus it was 0.09 µg/mL (≈ 0.258 µM).

In the case of `COc1ccc(-c2oc3cc(OC)c(OC)c(O)c3c(=O)c2OC)cc1OC` [ARTEMETIN], the MIC against Trichophyton benhamiae was 25 µg/mL (≈ 64.4 µM); in the assay on Aspergillus fumigatus, 50 µg/mL (≈ 129 µM); in the assay with Candida parapsilosis, 25 µg/mL (≈ 64.4 µM); against Enterococcus faecalis it was greater than 50 µg/mL; with Klebsiella pneumoniae, 25 µg/mL (≈ 64.4 µM); against Escherichia coli it was 50 µg/mL (≈ 129 µM). Moreover, the MIC is 50 µg/mL (≈ 129 µM) against Pseudomonas aeruginosa; 25 µg/mL (≈ 64.4 µM) in the assay with Staphylococcus aureus; greater than 50 µg/mL in the assay with Candida albicans; 12.5 µg/mL (≈ 32.2 µM) against Cryptococcus neoformans; greater than 50 µg/mL with Sporothrix schenckii.

As for `OC(Cn1cncn1)(Cn1cncn1)c1ccc(F)cc1F` [FLUCONAZOLE], the MIC came to 2 µg/mL (≈ 6.53 µM) with Trichophyton benhamiae; 2 µg/mL (≈ 6.53 µM) in the assay with Aspergillus fumigatus; 1 µg/mL (≈ 3.27 µM) against Candida parapsilosis; 0.5 µg/mL (≈ 1.63 µM) with Candida albicans; 1 µg/mL (≈ 3.27 µM) against Cryptococcus neoformans; 2 µg/mL (≈ 6.53 µM) with Sporothrix schenckii.

In the case of `O=c1cc(-c2ccc(O)c(O)c2)oc2cc(O)c([C@@H]3O[C@H](CO)[C@@H](O)[C@H](O)[C@H]3O)c(O)c12` [ISOORIENTIN], the MIC in the assay with Trichophyton benhamiae is 12.5 µg/mL (≈ 27.9 µM); in the assay with Aspergillus fumigatus it was 50 µg/mL (≈ 112 µM); against Candida parapsilosis it was greater than 50 µg/mL; with Enterococcus faecalis, 25 µg/mL (≈ 55.8 µM); with Klebsiella pneumoniae, 25 µg/mL (≈ 55.8 µM); in the assay with Escherichia coli it was 25 µg/mL (≈ 55.8 µM). Moreover, the minimal inhibitory concentration (MIC) against Pseudomonas aeruginosa was greater than 50 µg/mL; with Staphylococcus aureus it was 25 µg/mL (≈ 55.8 µM); against Candida albicans it was greater than 50 µg/mL; in the assay on Cryptococcus neoformans, 25 µg/mL (≈ 55.8 µM); in the assay on Sporothrix schenckii, greater than 50 µg/mL.

Regarding `O=c1cc(-c2ccc(O)c(O)c2)oc2cc(O)cc(O)c12` [LUTEOLIN], the minimum inhibitory concentration (MIC) against Trichophyton benhamiae is 50 µg/mL (≈ 175 µM); against Aspergillus fumigatus it was greater than 50 µg/mL; with Candida parapsilosis, 25 µg/mL (≈ 87.3 µM); in the assay on Enterococcus faecalis, 25 µg/mL (≈ 87.3 µM); with Klebsiella pneumoniae, 25 µg/mL (≈ 87.3 µM); in the assay with Escherichia coli, 50 µg/mL (≈ 175 µM). For the same compound, the MIC against Pseudomonas aeruginosa is 25 µg/mL (≈ 87.3 µM); against Staphylococcus aureus it was 25 µg/mL (≈ 87.3 µM); against Candida albicans, greater than 50 µg/mL; in the assay with Cryptococcus neoformans, 25 µg/mL (≈ 87.3 µM); against Sporothrix schenckii, greater than 50 µg/mL.
